Assay results published in patent publication EP4741392A1, “1H-PYRAZOLO[4,3-C]PYRIDINE COMPOUND, AND COMPOSITION THEREOF AND USE THEREOF” (Shenzhen TargetRx Co., Ltd., priority 2023, dated 2025).

System: Ramos cells with BTK WT
Experiment: Phosphor-BTK(Y223) assay, suspended cells
Format: cell-based
Conditions: phosphorylated BTK Y223, Ramos cells with BTK WT
In short: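 Ramos BTK WT cells (2.5 k/well) were treated with compound dilutions for 2 h at 37 °C, then 5 mM Na3VO4 for 3 h. Lysates were read by HTRF p-BTK(Y223) cryptate/d2 antibodies overnight at RT (665/620 ratio). IC50 came from a four-parameter fit of % inhibition versus blank and positive-control wells.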

IC50 (Homo sapiens, Ramos)	IC50	Molecule
≤ 5 nM		COc1ccc(F)cc1C(=O)NCc1ccc(-c2nc(C3CCOCC3)cc3[nH]nc(N)c23)cc1 [Example 115, N-(4-(3-amino-6-(tetrahydro-2H-pyran-4-yl)-1H-pyrazolo[4,3-c]pyridin-4-yl)benzyl)-5-fluoro-2-methoxybenzamide]
≤ 5 nM		COc1ccc(F)cc1C(=O)NCc1ccc(-c2nc([C@H]3CC[C@H](CO)CC3)cc3[nH]nc(N)c23)cc1 [Example 117, N-(4-(3-amino-6-((1r,4r)-4-(hydroxymethyl)cyclohexyl)-1H-pyrazolo[4,3-c]pyridin-4-yl)benzyl)-5-fluoro-2-methoxybenzamide]
	≤ 5 nM	N-(4-(3-amino-7-(1-(difluoromethyl)-1H-pyrazol-3-yl)-1H-pyrazolo[4,3-c]pyridin-4-yl)benzyl)-5-fluoro-2-methoxybenzamide [Example 29]
